Assay results from the NIST ThermoML archive (doi:10.1016/j.fluid.2010.01.002).
± gives the expanded uncertainty stated by the source.

Experiment: mn = molality of the nth substance listed, in mol/kg
Settings: 101 kPa, Liquid, Vibrating tube method

## COS(=O)(=O)[O-].Cn1cc[n+](C)c1 [1,3-dimethylimidazolium methylsulfate] + O
298.15 K, m1 = 0.0095
  mass density: 997.56 ± 0.04 kg/m3
298.15 K, m1 = 0.018
  mass density: 998.03 ± 0.04 kg/m3
298.15 K, m1 = 0.0236
  mass density: 998.32 ± 0.04 kg/m3
298.15 K, m1 = 0.0316
  mass density: 998.76 ± 0.04 kg/m3
298.15 K, m1 = 0.0414
  mass density: 999.29 ± 0.04 kg/m3
298.15 K, m1 = 0.0611
  mass density: 1000.34 ± 0.04 kg/m3
298.15 K, m1 = 0.0788
  mass density: 1001.28 ± 0.05 kg/m3
298.15 K, m1 = 0.0914
  mass density: 1001.94 ± 0.05 kg/m3
298.15 K, m1 = 0.1165
  mass density: 1003.24 ± 0.05 kg/m3
298.15 K, m1 = 0.1441
  mass density: 1004.65 ± 0.05 kg/m3
298.15 K, m1 = 0.1816
  mass density: 1006.53 ± 0.05 kg/m3
298.15 K, m1 = 0.2172
  mass density: 1008.25 ± 0.05 kg/m3
298.15 K, m1 = 0.2724
  mass density: 1010.92 ± 0.05 kg/m3
298.15 K, m1 = 0.3964
  mass density: 1016.79 ± 0.05 kg/m3
298.15 K, m1 = 0.4557
  mass density: 1019.55 ± 0.06 kg/m3
298.15 K, m1 = 0.5756
  mass density: 1024.98 ± 0.06 kg/m3
298.15 K, m1 = 0.7108
  mass density: 1030.77 ± 0.06 kg/m3
298.15 K, m1 = 1.826
  mass density: 1071.65 ± 0.1 kg/m3
308.15 K, m1 = 0.0095
  mass density: 994.57 ± 0.05 kg/m3
308.15 K, m1 = 0.018
  mass density: 995.02 ± 0.05 kg/m3
308.15 K, m1 = 0.0236
  mass density: 995.31 ± 0.05 kg/m3
308.15 K, m1 = 0.0316
  mass density: 995.73 ± 0.05 kg/m3
308.15 K, m1 = 0.0414
  mass density: 996.24 ± 0.05 kg/m3
308.15 K, m1 = 0.0611
  mass density: 997.25 ± 0.05 kg/m3
308.15 K, m1 = 0.0788
  mass density: 998.16 ± 0.05 kg/m3
308.15 K, m1 = 0.0914
  mass density: 998.8 ± 0.05 kg/m3
308.15 K, m1 = 0.1165
  mass density: 1000.06 ± 0.05 kg/m3
308.15 K, m1 = 0.1441
  mass density: 1001.43 ± 0.05 kg/m3
308.15 K, m1 = 0.1816
  mass density: 1003.27 ± 0.05 kg/m3
308.15 K, m1 = 0.2172
  mass density: 1004.99 ± 0.05 kg/m3
308.15 K, m1 = 0.2724
  mass density: 1007.59 ± 0.05 kg/m3
308.15 K, m1 = 0.3964
  mass density: 1013.25 ± 0.05 kg/m3
308.15 K, m1 = 0.4557
  mass density: 1015.89 ± 0.05 kg/m3
308.15 K, m1 = 0.5756
  mass density: 1021.08 ± 0.06 kg/m3
308.15 K, m1 = 0.7108
  mass density: 1026.7 ± 0.06 kg/m3
308.15 K, m1 = 1.826
  mass density: 1065.12 ± 0.1 kg/m3
318.15 K, m1 = 0.0095
  mass density: 990.75 ± 0.05 kg/m3
318.15 K, m1 = 0.018
  mass density: 991.2 ± 0.05 kg/m3
318.15 K, m1 = 0.0236
  mass density: 991.48 ± 0.05 kg/m3
318.15 K, m1 = 0.0316
  mass density: 991.89 ± 0.05 kg/m3
318.15 K, m1 = 0.0414
  mass density: 992.39 ± 0.05 kg/m3
318.15 K, m1 = 0.0611
  mass density: 993.38 ± 0.05 kg/m3
318.15 K, m1 = 0.0788
  mass density: 994.27 ± 0.05 kg/m3
318.15 K, m1 = 0.0914
  mass density: 994.9 ± 0.05 kg/m3
318.15 K, m1 = 0.1165
  mass density: 996.14 ± 0.05 kg/m3
318.15 K, m1 = 0.1441
  mass density: 997.49 ± 0.05 kg/m3
318.15 K, m1 = 0.1816
  mass density: 999.3 ± 0.05 kg/m3
318.15 K, m1 = 0.2172
  mass density: 1001 ± 0.05 kg/m3
318.15 K, m1 = 0.2724
  mass density: 1003.6 ± 0.05 kg/m3
318.15 K, m1 = 0.3964
  mass density: 1009.26 ± 0.05 kg/m3
318.15 K, m1 = 0.4557
  mass density: 1011.88 ± 0.05 kg/m3
318.15 K, m1 = 0.5756
  mass density: 1017.04 ± 0.06 kg/m3
318.15 K, m1 = 0.7108
  mass density: 1022.63 ± 0.06 kg/m3
318.15 K, m1 = 1.826
  mass density: 1061.7 ± 0.1 kg/m3
328.15 K, m1 = 0.0095
  mass density: 986.12 ± 0.05 kg/m3
328.15 K, m1 = 0.018
  mass density: 986.56 ± 0.05 kg/m3
328.15 K, m1 = 0.0236
  mass density: 986.84 ± 0.05 kg/m3
328.15 K, m1 = 0.0316
  mass density: 987.25 ± 0.05 kg/m3
328.15 K, m1 = 0.0414
  mass density: 987.74 ± 0.05 kg/m3
328.15 K, m1 = 0.0611
  mass density: 988.72 ± 0.05 kg/m3
328.15 K, m1 = 0.0788
  mass density: 989.59 ± 0.05 kg/m3
328.15 K, m1 = 0.0914
  mass density: 990.2 ± 0.05 kg/m3
328.15 K, m1 = 0.1165
  mass density: 991.43 ± 0.05 kg/m3
328.15 K, m1 = 0.1441
  mass density: 992.77 ± 0.05 kg/m3
328.15 K, m1 = 0.1816
  mass density: 994.58 ± 0.05 kg/m3
328.15 K, m1 = 0.2172
  mass density: 996.25 ± 0.05 kg/m3
328.15 K, m1 = 0.2724
  mass density: 998.8 ± 0.05 kg/m3
328.15 K, m1 = 0.3964
  mass density: 1004.4 ± 0.05 kg/m3
328.15 K, m1 = 0.4557
  mass density: 1006.99 ± 0.05 kg/m3
328.15 K, m1 = 0.5756
  mass density: 1012.19 ± 0.06 kg/m3
328.15 K, m1 = 0.7108
  mass density: 1017.83 ± 0.06 kg/m3
328.15 K, m1 = 1.826
  mass density: 1057 ± 0.09 kg/m3
